From patent publication US6784201B2, “Benzothiepines having activity as inhibitors of ileal bile acid transport and taurocholate uptake” (G.D. Searle & Company, priority 1994, dated 2004) come the findings set out here.

One test deals with T1, human IBAT (Homo sapiens, UniProt Q12908).
T1 construct: expressed in transfected cells; host or cells: Baby hamster kidney (BHK) cells, clone H14
T1 sequence (Q12908 1-348): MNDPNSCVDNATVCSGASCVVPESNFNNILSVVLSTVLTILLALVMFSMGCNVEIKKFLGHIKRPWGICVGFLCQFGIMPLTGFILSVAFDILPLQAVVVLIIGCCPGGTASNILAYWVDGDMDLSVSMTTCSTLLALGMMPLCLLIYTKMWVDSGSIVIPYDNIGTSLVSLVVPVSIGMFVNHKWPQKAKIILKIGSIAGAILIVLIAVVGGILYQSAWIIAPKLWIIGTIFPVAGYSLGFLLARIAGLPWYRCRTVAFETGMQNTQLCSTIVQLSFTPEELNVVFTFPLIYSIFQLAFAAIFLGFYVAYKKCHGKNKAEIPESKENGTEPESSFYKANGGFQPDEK
In words: In vitro assay of IBAT-mediated uptake of [14C]-taurocholate (TC) in H14 cells. In kind it is cell-based. Conditions: for IC50: read-out: Human TC IC50; for In vitro % Inhibition of TC Uptake: 50 μM. The method, boiled down: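 BHK cells stably expressing human IBAT (H14) were incubated 2 h at 37° C with compound and 3 μM final [14C]-taurocholate in DMEM (4.5 g/L glucose) plus 0.2% fatty acid-free BSA. After cold PBS washes, cell-associated radioactivity was measured by scintillation counting.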

The subject of the next test is fecal bile acid (FBA). In words: Rat gavage assay (fecal bile acid increase). Type of test: in vivo. The method, then:
Male Wister rats (275-300 g) are administered IBAT inhibitors using an oral gavage procedure. Drug or vehicle (0.2% Tween 80 in water) is administered once a day (9:00-10:0 a.m.) for 4 days at varying dosages in a final volume of 2 mL per kilogram of body weight. Total fecal samples are collected during the final 48 hours of the treatment period and analyzed for bile acid content using an enzymatic assay as described below. Compound efficacy is determined by comparison of the increase in fecal bile acid (FBA) concentration in treated rats to the mean FBA concentration of rats in the vehicle group.
Measurement of Fecal Bile Acid Concentration (FBA)
Total fecal output from individually housed hamsters was collected for 24 or 48 hours, dried under a stream of nitrogen, pulverized and weighed. Approximately 0.1 gram was weighed out and extracted into an organic solvent (butanol/water). Following separation and drying, the residue was dissolved in methanol and the amount of bile acid present was measured enzymatically using the 3α-hydroxysteroid steroid dehydrogenase reaction with bile acids to reduce NAD. (Reference: Mashige, F., et al. (1981) Clin. Chem. 27, 1352).

Setting [1] is: In Vitro Taurocholate Uptake, Table 10.

Structures can show the parent of a compound that is named as a salt. Where two headings read alike, the source gives them in different places.

For the compound `CCCCC1(CCCC)CS(=O)(=O)c2ccc(N(C)C)cc2[C@@H](c2ccc(OCc3ccc(CN(CC(=O)O)CC(=O)O)cc3)cc2)[C@H]1O` (relative stereo) [Example 1427], the concentration for half-maximal inhibition (IC50) – broadly, the concentration at which inhibition is half-maximal – on human IBAT (setting [1]) was found to be 2 nM. The “Delta (micromoles fecal bile acid per day)” value was 36.7 micromoles fecal bile acid per day in the test on fecal bile acid (FBA) (dose 2 mg/kg/day), 13.8 micromoles fecal bile acid per day with fecal bile acid (FBA) (dose .016 mg/kg/day), 27.3 micromoles fecal bile acid per day in the test with fecal bile acid (FBA) (dose .08 mg/kg/day) and 35.8 micromoles fecal bile acid per day with fecal bile acid (FBA) (dose .4 mg/kg/day).

`CCCCC1(CCCC)CS(=O)(=O)c2ccc(N(C)C)cc2C(c2cccc(OCCOCCOCC[n+]3ccccc3)c2)C1O` (centres unmarked) [Example 1355]: the IC50 at human IBAT was determined as 1.5 nM.

For `CCCCC1(CCCC)CS(=O)(=O)c2ccc(N(C)C)cc2C(c2ccc[n+](C)c2)C1O` (centres unmarked) [Example 1356], the IC50 on human IBAT came out at 220 nM.

Regarding `CCCCC1(CCCC)CS(=O)(=O)c2ccc(N(C)C)cc2C(c2cccc(OCCOCCOCC[P+](CC)(CC)CC)c2)C1O` (centres unmarked) [Example 1358], the half-inhibitory concentration (IC50) on human IBAT was 8 nM. The same measure, in the same setting: under `CCCCC1(CCCC)CS(=O)(=O)c2ccc(N(C)C)cc2C(c2cccc(OCCOCCOCC[n+]3ccn(Cc4ccccc4)c3)c2)C1O` (centres unmarked) [Example 1359] stands 14 nM; under `CCCCC1(CCCC)CS(=O)(=O)c2ccc(N(C)C)cc2C(c2cccc(OCCOCCOCC[n+]3nnn4c3CCCCC4)c2)C1O` (centres unmarked) [Example 1360], 3 nM; under `CCCCC1(CCCC)CS(=O)(=O)c2ccc(N(C)C)cc2C(c2cccc(OCCOCCOCC[n+]3cccn3-c3ccccc3)c2)C1O` (centres unmarked) [Example 1361], 4 nM. On the same count and under the same terms, next, `CCCCC1(CCCC)CS(=O)(=O)c2ccc(N(C)C)cc2C(c2cccc(OCCOCCOCC[N+](CC)(CC)CCC(=O)O)c2)C1O` (centres unmarked) [Example 1362]: 19 nM. The same measure, in the same setting: under `CCCCC1(CCCC)CS(=O)(=O)c2ccc(N(C)C)cc2C(c2cccc(OCCOCCOCC[N+](CC)(CC)CCNS(=O)(=O)N(C)C)c2)C1O` (centres unmarked) [Example 1363] stands 8 nM; under `CCCCC1(CCCC)CS(=O)(=O)c2ccc(N(C)C)cc2C(c2cccc(OCCOCCOCC[N+](CC)(CC)CCNC(N)=O)c2)C1O` (centres unmarked) [Example 1364], 6 nM.

Consider `CCCCC1(CCCC)CS(=O)(=O)c2ccc(N(C)C)cc2C(c2cccc(OCCOCCOCC[N+](CC)(CC)CCNS(=O)(=O)c3ccccc3)c2)C1O` (centres unmarked) [Example 1365], for which the half-inhibitory concentration (IC50) at human IBAT was found to be 8 nM.

Consider `CCCCC1(CCCC)CS(=O)(=O)c2ccc(N(C)C)cc2C(c2ccc(OCCCC[n+]3ccc(C(=O)OC)cc3)c(F)c2)C1O` (centres unmarked) [Example 1366], for which, at human IBAT, the IC50 was determined as 15 nM.

In the case of `CCCCC1(CCCC)CS(=O)(=O)c2ccc(N(C)C)cc2C(c2cccc(OCCOCCOCC[n+]3ccn(CC)c3)c2)C1O` (centres unmarked) [Example 1367], the IC50 on human IBAT is 2 nM. Still for that read-out and setting: under `CCCCC1(CCCC)CS(=O)(=O)c2ccc(N(C)C)cc2C(c2cccc(OCCOCCOCC[n+]3c(C)cc(C)cc3C)c2)C1O` (centres unmarked) [Example 1368] stands 5 nM. Same read-out and setting: next, `CCCCC1(CCCC)CS(=O)(=O)c2ccc(N(C)C)cc2C(c2cccc(OCCOCCOCC[n+]3ccccc3-c3ccccc3)c2)C1O` (centres unmarked) [Example 1369]: 5 nM; `CCCCC1(CCCC)CS(=O)(=O)c2ccc(N(C)C)cc2C(c2cccc(OCCOCCOCC[N+](C)(C)C3CC(C)(C)N(C)C(C)(C)C3)c2)C1O` (centres unmarked) [Example 1370]: 2 nM; `CCCCC1(CCCC)CS(=O)(=O)c2ccc(N(C)C)cc2C(c2cccc(OCCOCCOCC[N+](CC)(CC)CC#N)c2)C1O` (centres unmarked) [Example 1371]: 4 nM. Still for that read-out and setting: next, `CCCCC1(CCCC)CS(=O)(=O)c2ccc(N(C)C)cc2C(c2cccc(OCCOCCOCC[N+](CC)(CC)CCNC(=O)N(C)C)c2)C1O` (centres unmarked) [Example 1372]: 4 nM.

Take `CCCCC1(CCCC)CS(=O)(=O)c2ccc(N(C)C)cc2C(c2cccc(OCCOCCOCC[N+](CC)(CC)CCNP(C)(=O)c3ccccc3)c2)C1O` (centres unmarked) [Example 1373]: the IC50 on human IBAT came to 8 nM. Consider `CCCCC1(CCCC)CS(=O)(=O)c2ccc(N(C)C)cc2C(c2cccc(OCCOCCOCC[N+](CC)(CC)CCNC(=O)c3ccccc3)c2)C1O` (centres unmarked) [Example 1374], for which the IC50 at human IBAT was found to be 7 nM. Still for that read-out and setting: next, `C=C(C)C(=O)OCC[N+](CC)(CC)CCOCCOCCOc1cccc(C2c3cc(N(C)C)ccc3S(=O)(=O)CC(CCCC)(CCCC)C2O)c1` (centres unmarked) [Example 1375]: 2 nM. `CCCCC1(CCCC)CS(=O)(=O)c2ccc(N(C)C)cc2[C@@H](c2ccc(OCC(=O)NCC(=O)O)cc2)[C@H]1O` [Example 1403]: the half-inhibitory concentration (IC50) on human IBAT (setting [1]) was 23 nM. In addition, the “Delta (micromoles fecal bile acid per day)” value in the test with fecal bile acid (FBA) (dose 2 mg/kg/day) is reported as 41.6 micromoles fecal bile acid per day; with fecal bile acid (FBA) (dose .016 mg/kg/day) it was 3 micromoles fecal bile acid per day; in the test with fecal bile acid (FBA) (dose .08 mg/kg/day), 11.9 micromoles fecal bile acid per day; with fecal bile acid (FBA) (dose .4 mg/kg/day), 35.2 micromoles fecal bile acid per day. Consider `CCCCC1(CCCC)CS(=O)(=O)c2ccc(N(C)C)cc2[C@@H](c2ccc(OCCC[N+]34CCN(CC3)CC4)cc2)[C@H]1O` [Example 1407, (4R-cis)-1-[3-[4-[3,3-Dibutyl-7-(dimethylamino)-2,3,4,5-tetrahydro-4-hydroxy-1,1-dioxido-1-benzothiepin-5-yl]phenoxy]propyl]-4-aza-1-azoniabicyclo[2.2.2]octane, 4-methylbenzenesulfonate (Salt)], for which, on human IBAT (setting [1]), the IC50 was 3 nM. On the same count and under the same terms, next, `CCCCC1(CCCC)CS(=O)(=O)c2ccc(N(C)C)cc2[C@@H](c2ccc(OCCCC[N+]34CCN(CC3)CC4)cc2)[C@H]1O` [Example 1408, (4R-cis)-1-[4-[4-[3,3-Dibutyl-7-(dimethylamino)-2,3,4,5-tetrahydro-4-hydroxy-1,1-dioxido-1-benzothiepin-5-yl]phenoxy]butyl]-4-aza-1-azoniabicyclo [2.2.2]octanemethanesulfonate (Salt)]: 1 nM; `CCCCC1(CCCC)CS(=O)(=O)c2ccc(N(C)C)cc2[C@@H](c2ccc(OCCCC[N+]34CCN(CC3)CC4)cc2)[C@H]1O` [Example 1409, (4R-cis)-1-[4-[4-[3,3-Dibutyl-7-(dimethylamino)-2,3,4,5-tetrahydro-4-hydroxy-1,1-dioxido-1-benzothiepin-5-yl]phenoxy]butyl]-4-aza-1-azoniabicyclo[2.2.2]octane-4-methylbenzenesulfonate (Salt)]: 0.9 nM. The same measure, in the same setting: under `CCCCC1(CCCC)CS(=O)(=O)c2ccc(N(C)C)cc2[C@@H](c2ccc(OCCCCC[n+]3cccc4ccccc43)cc2)[C@H]1O` [Example 1412, (4R-cis)-1-[5-[4-[3,3-Dibutyl-7-(dimethylamino)-2,3,4,5-tetrahydro-4-hydroxy-1,1-dioxido-1-benzothiepin-5-yl]phenoxy]pentyl]quinolinium, methanesulfonate (Salt)] stands 3 nM; under `CCCCC1(CCCC)CS(=O)(=O)c2ccc(N(C)C)cc2[C@@H](c2ccc(OCc3cc[n+](C)cc3)cc2)[C@H]1O` [Example 1428, (4R-cis)-4-[[4-[3,3-Dibutyl-7-(dimethylamino)-2,3,4,5-tetrahydro-4-hydroxy-1,1-dioxido-1,1-dioxido-1-benzothiepin-5-yl]phenoxy]methyl]-1-methylpyridinium salt with trifluoroacetic acid (1:1)], 0.7 nM; under `CCCCC1(CCCC)CS(=O)(=O)c2ccc(N(C)C)cc2[C@@H](c2ccc(OCc3cccc(CN(CC(=O)O)CC(=O)O)n3)cc2)[C@H]1O` [Example 1431, (4R-cis)-N-(Carboxymethyl)-N-[[6-[[4-[3,3-dibutyl-7-(dimethylamino)-2,3,4,5-tetrahydro-4-hydroxy-1,1-dioxido-1-benzothiepin-5-yl]phenoxy]methyl]-2-pyridinyl]methyl]glycine], 5 nM. As to “cis-4-Hydroxy-5-phenyl-2,3,4,5-tetrahydro spiro(benzothiepine-3,1′-cyclohexane)-1,1-dioxide [Example 60]”, the “In vitro % Inhibition of TC Uptake” value on human IBAT is 41%. Still for that read-out and setting: next, “trans-4-Hydroxy-5-phenyl-2,3,4,5-tetrahydro spiro(benzothiepine-3,1′-cyclohexane)-1,1-dioxide [Example 59]”: 96%.
